Literature values in US20080247991A1, “Solution Additives For the Attenuation of Protein Aggregation” (priority 2004, published 2008).
Marks after values point to notes of the source that are not given here.

Target: T1, RNase A (Bos taurus, UniProt P61823)
T1 sequence (P61823 27-150): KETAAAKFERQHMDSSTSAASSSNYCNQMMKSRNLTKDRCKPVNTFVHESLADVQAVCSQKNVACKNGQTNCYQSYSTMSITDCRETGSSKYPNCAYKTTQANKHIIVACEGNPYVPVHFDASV
Conditions: interpolated to mbulk 0.91 m; cited from earlier work

SMILES: OCC(O)CO [Glycerol]
- Experimental ΓXP: −1.7 ± 0.8^b
